Measured values published in ChEMBL document CHEMBL3132769, “Fragment growing to retain or alter the selectivity of anchored kinase hinge-binding fragments” (Medchemcomm, 2014).

How the values were obtained:
[1] = biological target: T1, Inhibitor of nuclear factor kappa-B kinase subunit beta (Homo sapiens) (UniProt O14920); assay: Inhibition of human full length IKK beta expressed in baculovirus assessed as substrate phosphorylation using fluorescence-labelled peptides as substrate at 8 uM after 90 mins by microfluidic peptide phosphorylation assay
T1 sequence (whole entry): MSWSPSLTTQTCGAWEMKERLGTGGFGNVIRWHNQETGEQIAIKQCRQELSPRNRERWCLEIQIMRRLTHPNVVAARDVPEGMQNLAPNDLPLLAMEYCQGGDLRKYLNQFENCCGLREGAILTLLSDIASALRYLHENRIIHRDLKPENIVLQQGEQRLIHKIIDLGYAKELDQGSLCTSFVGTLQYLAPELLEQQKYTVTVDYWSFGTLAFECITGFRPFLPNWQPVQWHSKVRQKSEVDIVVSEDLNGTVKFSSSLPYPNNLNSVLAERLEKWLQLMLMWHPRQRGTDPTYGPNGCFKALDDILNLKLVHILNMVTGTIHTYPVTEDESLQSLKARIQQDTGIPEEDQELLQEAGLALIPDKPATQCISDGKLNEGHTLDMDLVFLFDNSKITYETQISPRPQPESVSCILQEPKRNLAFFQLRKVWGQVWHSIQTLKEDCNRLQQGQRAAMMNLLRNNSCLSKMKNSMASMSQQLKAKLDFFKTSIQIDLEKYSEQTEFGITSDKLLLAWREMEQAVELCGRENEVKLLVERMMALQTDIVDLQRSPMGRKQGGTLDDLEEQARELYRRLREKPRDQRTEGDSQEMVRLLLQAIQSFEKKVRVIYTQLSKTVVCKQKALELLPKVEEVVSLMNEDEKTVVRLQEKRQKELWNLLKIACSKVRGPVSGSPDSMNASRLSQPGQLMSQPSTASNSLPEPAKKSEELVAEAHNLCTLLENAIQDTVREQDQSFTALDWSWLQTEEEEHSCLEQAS

[2] = biological target: Cyclin-dependent kinase 2 (Homo sapiens) (UniProt P24941); assay: Inhibition of human full length CDK2 expressed in baculovirus assessed as substrate phosphorylation using fluorescence-labelled peptides as substrate at 8 uM after 90 mins by microfluidic peptide phosphorylation assay
[3] = biological target: Rho-associated protein kinase 2 (Homo sapiens) (UniProt O75116); assay: Inhibition of human ROCK2 catalytic domain expressed in baculovirus assessed as substrate phosphorylation using fluorescence-labelled peptides as substrate at 8 uM after 90 mins by microfluidic peptide phosphorylation assay
[4] = biological target: Insulin receptor (Homo sapiens) (UniProt P06213); assay: Inhibition of human INSR catalytic domain expressed in baculovirus assessed as substrate phosphorylation using fluorescence-labelled peptides as substrate at 0.06 uM after 90 mins by microfluidic peptide phosphorylation assay
[5] = biological target: Mitogen-activated protein kinase 3 (Homo sapiens) (UniProt P27361); assay: Inhibition of human full length ERK1 expressed in Escherichia coli cell assessed as substrate phosphorylation using fluorescence-labelled peptides as substrate at 2 uM after 90 mins by microfluidic peptide phosphorylation assay
[6] = biological target: T2, Serine/threonine-protein kinase 3 (Homo sapiens) (UniProt Q13188); assay: Inhibition of human full length MST2 expressed in baculovirus assessed as substrate phosphorylation using fluorescence-labelled peptides as substrate at […] after 90 mins by microfluidic peptide phosphorylation assay
T2 sequence (whole entry): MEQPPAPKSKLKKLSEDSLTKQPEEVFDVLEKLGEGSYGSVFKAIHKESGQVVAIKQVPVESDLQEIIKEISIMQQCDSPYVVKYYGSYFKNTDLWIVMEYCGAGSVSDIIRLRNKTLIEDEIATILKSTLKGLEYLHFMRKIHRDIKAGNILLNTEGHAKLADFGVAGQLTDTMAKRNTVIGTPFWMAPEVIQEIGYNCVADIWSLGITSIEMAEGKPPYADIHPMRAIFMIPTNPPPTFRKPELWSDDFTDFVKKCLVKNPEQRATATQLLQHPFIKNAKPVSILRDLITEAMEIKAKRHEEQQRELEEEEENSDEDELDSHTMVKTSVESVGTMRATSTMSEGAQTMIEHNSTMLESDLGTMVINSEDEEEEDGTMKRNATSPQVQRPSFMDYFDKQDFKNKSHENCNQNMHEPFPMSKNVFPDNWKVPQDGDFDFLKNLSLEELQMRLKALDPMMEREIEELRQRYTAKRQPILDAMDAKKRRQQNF

[7] = biological target: MAP kinase-activated protein kinase 3 (Homo sapiens) (UniProt Q16644); assay: Inhibition of human full length MAPKAPK3 expressed in Escherichia coli cell assessed as substrate phosphorylation using fluorescence-labelled peptides as substrate at […] after 90 mins by microfluidic peptide phosphorylation assay
[8] = biological target: Protein kinase C gamma type (Homo sapiens) (UniProt P05129); assay: Inhibition of human truncated PKC gamma expressed in baculovirus assessed as substrate phosphorylation using fluorescence-labelled peptides as substrate at 9 uM after 90 mins by microfluidic peptide phosphorylation assay
[9] = biological target: Fibroblast growth factor receptor 1 (Homo sapiens) (UniProt P11362); assay: Inhibition of human FGFR1 catalytic domain expressed in baculovirus assessed as substrate phosphorylation using fluorescence-labelled peptides as substrate at 9 uM after 90 mins by microfluidic peptide phosphorylation assay
Homo sapiens = organism: Homo sapiens; conditions: 0.1 uM
Description: Inhibition of human full length PKA expressed in baculovirus assessed as substrate phosphorylation using fluorescence-labelled peptides as substrate at 0.1 uM after 90 mins by microfluidic peptide phosphorylation assay

[10] = biological target: Serine/threonine-protein kinase MARK1 (Homo sapiens) (UniProt Q9P0L2); assay: Inhibition of human full length MARK1 expressed in baculovirus assessed as substrate phosphorylation using fluorescence-labelled peptides as substrate at 1000 uM after 90 mins by microfluidic peptide phosphorylation assay
[11] = biological target: Fibroblast growth factor receptor 1 (Homo sapiens) (UniProt P11362); assay: Inhibition of human FGFR1 catalytic domain expressed in baculovirus assessed as substrate phosphorylation using fluorescence-labelled peptides as substrate at 70 uM after 90 mins by microfluidic peptide phosphorylation assay
[12] = biological target: RAC-alpha serine/threonine-protein kinase (Homo sapiens) (UniProt P31749); assay: Inhibition of human AKT1 catalytic domain expressed in baculovirus assessed as substrate phosphorylation using fluorescence-labelled peptides as substrate at 420 uM after 90 mins by microfluidic peptide phosphorylation assay
[13] = biological target: T3, Aurora kinase A (Homo sapiens) (UniProt O14965); assay: Inhibition of human full length AurA expressed in baculovirus assessed as substrate phosphorylation using fluorescence-labelled peptides as substrate at 420 uM after 90 mins by microfluidic peptide phosphorylation assay
T3 sequence (whole entry): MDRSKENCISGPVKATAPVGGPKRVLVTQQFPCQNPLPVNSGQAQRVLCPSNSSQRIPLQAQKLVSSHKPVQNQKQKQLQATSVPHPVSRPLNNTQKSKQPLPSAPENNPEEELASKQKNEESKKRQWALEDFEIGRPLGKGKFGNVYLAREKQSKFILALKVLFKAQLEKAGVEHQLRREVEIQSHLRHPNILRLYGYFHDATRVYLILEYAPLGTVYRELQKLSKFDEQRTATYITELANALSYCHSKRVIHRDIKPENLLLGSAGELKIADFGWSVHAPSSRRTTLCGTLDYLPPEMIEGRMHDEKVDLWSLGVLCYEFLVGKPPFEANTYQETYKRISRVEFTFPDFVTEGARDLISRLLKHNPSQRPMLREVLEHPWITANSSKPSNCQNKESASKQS

Chain of Fibroblast growth factor receptor 1 (Homo sapiens) (P11362 22-822 limits assumed): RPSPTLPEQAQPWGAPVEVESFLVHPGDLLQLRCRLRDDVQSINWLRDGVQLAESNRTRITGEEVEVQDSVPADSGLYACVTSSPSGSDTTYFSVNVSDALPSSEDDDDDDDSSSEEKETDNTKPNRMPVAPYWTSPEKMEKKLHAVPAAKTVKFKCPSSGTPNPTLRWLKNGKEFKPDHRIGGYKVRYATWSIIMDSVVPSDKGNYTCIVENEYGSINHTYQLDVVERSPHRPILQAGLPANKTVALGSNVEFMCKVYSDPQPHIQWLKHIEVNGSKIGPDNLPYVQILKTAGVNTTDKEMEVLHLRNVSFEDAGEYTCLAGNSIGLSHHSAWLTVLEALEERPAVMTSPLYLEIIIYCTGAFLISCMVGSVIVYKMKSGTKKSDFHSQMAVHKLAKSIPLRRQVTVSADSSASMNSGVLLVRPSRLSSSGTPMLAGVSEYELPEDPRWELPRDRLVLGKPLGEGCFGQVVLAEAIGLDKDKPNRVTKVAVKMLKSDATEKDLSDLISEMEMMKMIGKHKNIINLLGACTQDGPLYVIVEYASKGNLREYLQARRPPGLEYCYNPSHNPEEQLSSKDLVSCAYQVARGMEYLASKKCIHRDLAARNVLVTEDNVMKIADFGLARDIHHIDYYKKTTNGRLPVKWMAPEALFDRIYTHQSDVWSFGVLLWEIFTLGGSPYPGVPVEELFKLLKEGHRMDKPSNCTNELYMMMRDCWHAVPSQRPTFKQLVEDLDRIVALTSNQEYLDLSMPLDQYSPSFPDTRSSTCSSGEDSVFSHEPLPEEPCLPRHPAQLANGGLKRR
Chain of Mitogen-activated protein kinase 3 (Homo sapiens) (P27361 whole entry): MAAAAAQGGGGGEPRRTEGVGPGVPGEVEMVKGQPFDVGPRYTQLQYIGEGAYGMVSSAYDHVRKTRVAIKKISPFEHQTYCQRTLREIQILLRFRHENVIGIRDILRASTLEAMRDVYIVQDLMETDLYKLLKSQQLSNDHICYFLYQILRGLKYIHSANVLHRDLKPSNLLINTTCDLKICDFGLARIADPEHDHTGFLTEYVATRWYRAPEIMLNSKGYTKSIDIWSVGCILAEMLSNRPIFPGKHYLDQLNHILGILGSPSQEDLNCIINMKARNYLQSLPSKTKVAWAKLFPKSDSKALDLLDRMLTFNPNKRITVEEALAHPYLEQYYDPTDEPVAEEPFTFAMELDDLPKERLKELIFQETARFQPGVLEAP
Chain of MAP kinase-activated protein kinase 3 (Homo sapiens) (Q16644 whole entry, looked up, the tested form may be a part): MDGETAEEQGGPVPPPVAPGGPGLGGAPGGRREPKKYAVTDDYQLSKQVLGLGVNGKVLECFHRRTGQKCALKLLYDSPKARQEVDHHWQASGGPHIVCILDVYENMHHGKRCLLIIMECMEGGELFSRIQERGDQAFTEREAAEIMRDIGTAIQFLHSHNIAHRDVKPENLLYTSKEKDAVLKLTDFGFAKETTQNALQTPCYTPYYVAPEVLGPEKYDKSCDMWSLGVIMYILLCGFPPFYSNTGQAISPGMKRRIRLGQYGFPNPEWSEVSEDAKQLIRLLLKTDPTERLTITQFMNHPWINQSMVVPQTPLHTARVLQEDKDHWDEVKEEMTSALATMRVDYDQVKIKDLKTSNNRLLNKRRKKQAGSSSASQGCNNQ
Chain of Serine/threonine-protein kinase MARK1 (Homo sapiens) (Q9P0L2 whole entry, looked up, the tested form may be a part): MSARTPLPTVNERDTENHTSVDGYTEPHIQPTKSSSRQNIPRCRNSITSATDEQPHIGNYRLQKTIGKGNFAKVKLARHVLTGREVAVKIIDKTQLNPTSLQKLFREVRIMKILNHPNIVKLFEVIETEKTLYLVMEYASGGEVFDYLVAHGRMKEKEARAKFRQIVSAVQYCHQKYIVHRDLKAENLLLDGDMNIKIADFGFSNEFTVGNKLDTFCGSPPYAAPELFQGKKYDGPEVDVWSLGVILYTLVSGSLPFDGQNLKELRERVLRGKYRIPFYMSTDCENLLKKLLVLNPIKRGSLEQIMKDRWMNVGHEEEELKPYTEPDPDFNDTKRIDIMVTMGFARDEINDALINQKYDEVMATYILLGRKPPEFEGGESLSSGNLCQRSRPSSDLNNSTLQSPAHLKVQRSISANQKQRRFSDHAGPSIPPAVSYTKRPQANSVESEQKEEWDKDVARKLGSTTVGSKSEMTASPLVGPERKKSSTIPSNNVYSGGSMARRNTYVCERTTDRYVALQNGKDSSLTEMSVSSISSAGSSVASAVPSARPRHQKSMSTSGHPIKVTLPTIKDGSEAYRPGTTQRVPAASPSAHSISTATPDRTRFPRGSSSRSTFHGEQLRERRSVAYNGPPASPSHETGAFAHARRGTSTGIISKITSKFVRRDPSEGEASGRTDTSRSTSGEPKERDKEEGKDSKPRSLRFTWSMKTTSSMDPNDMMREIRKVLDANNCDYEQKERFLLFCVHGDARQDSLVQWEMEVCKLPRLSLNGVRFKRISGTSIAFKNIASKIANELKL
Chain of RAC-alpha serine/threonine-protein kinase (Homo sapiens) (P31749 whole entry, the tested form may be a part): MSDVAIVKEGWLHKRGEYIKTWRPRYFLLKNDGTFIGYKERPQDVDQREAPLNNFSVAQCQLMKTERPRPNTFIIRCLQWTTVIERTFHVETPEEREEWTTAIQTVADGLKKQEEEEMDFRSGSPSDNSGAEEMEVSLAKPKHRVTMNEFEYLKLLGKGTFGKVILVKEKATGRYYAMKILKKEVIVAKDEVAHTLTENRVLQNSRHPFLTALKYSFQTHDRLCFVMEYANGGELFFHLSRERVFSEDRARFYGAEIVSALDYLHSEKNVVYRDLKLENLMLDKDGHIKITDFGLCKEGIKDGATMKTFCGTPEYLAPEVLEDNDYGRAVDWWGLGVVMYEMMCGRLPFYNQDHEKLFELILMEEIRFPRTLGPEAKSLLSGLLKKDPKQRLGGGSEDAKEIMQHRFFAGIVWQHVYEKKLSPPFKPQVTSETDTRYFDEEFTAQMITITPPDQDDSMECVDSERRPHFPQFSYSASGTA
Chain of Rho-associated protein kinase 2 (Homo sapiens) (O75116 whole entry, looked up, the tested form may be a part): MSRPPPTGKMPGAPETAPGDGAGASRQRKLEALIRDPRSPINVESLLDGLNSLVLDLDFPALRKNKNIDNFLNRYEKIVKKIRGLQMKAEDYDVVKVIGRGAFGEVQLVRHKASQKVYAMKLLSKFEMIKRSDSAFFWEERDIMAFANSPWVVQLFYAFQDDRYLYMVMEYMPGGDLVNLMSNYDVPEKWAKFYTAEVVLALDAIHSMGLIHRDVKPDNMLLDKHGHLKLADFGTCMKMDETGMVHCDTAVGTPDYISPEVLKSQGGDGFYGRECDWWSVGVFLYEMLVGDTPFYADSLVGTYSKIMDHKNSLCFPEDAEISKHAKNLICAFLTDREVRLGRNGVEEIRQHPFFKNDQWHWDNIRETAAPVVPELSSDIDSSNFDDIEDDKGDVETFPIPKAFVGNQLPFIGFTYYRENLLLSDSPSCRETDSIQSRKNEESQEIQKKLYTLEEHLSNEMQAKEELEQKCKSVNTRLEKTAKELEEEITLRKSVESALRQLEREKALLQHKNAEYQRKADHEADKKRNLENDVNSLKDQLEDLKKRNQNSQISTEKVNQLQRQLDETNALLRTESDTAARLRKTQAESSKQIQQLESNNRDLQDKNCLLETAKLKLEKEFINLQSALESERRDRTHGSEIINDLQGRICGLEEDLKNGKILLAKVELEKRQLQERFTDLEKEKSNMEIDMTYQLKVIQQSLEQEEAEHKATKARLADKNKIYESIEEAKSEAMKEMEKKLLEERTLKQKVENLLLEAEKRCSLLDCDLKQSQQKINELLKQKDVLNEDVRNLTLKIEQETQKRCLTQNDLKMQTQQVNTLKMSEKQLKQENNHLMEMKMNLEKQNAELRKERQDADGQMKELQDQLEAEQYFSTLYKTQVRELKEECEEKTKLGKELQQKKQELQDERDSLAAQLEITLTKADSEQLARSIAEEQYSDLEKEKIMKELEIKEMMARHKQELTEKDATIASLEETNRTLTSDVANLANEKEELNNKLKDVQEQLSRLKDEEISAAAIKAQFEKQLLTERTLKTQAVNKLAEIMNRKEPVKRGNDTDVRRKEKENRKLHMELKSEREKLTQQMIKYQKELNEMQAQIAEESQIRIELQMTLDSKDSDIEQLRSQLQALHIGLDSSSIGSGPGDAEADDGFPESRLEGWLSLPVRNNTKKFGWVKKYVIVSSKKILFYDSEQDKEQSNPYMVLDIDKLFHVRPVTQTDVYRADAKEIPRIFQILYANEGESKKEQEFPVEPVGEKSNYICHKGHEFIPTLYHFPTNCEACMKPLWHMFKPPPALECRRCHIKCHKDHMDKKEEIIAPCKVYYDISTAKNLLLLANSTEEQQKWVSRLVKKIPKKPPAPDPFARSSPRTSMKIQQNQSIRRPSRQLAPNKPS

NCC1CCN(c2ncnc3[nH]ccc23)CC1
inhibition [1]: 13.5% | inhibition [2]: 7% | inhibition [3]: 89.5%

NC1(Cc2ccc(Cl)cc2)CCN(c2ncnc3[nH]ccc23)CC1
inhibition [4]: 6%

NC1CCN(c2ncnc3[nH]ccc23)CC1
inhibition [5]: 1%

COC(=O)c1cnc(Nc2cnc(C#N)cn2)cc1NCC1CCNCC1
inhibition [6]: 0.5% | inhibition [7]: 7%

NCC1CN(c2ncnc3[nH]c4cnccc4c23)CCO1 (centres undefined)
inhibition [8]: 34.5% | inhibition [9]: 55.5%

C[C@H](CN(C)C)Oc1nc(Nc2cc3cccc(Cl)c3cn2)cnc1C#N
inhibition (Homo sapiens): 0%

c1cnc2[nH]ccc2c1
inhibition [10]: 93.5%

CNCc1ccc(-c2ncnc3[nH]cnc23)cc1
inhibition [11]: 43%

c1nc(N2CCOCC2)c2nc[nH]c2n1
inhibition [12]: 61.5% | inhibition [13]: 96%
